From patent US6596718B1, “7-Morpholin-4yl-benzothiazole amide derivatives” (Hoffmann-La Roche Inc., priority 2001, dated 2003)

Key:
[1] = target: T1, human adenosine A2A receptor (Homo sapiens, UniProt P29274); test: [3H]-SCH-58261 binding assay, human adenosine A2A receptor (SPA, CHO cell membranes); conditions: recombinant human A2A in CHO membranes; [3H]-SCH-58261 1 nM; Ki by Cheng-Prussoff; read-out: hA2 (pKi) (converted)
T1 construct: expressed in transfected cells; host or cells: CHO cells, Semliki Forest virus expression system; membrane preparation
T1 sequence (P29274 whole entry): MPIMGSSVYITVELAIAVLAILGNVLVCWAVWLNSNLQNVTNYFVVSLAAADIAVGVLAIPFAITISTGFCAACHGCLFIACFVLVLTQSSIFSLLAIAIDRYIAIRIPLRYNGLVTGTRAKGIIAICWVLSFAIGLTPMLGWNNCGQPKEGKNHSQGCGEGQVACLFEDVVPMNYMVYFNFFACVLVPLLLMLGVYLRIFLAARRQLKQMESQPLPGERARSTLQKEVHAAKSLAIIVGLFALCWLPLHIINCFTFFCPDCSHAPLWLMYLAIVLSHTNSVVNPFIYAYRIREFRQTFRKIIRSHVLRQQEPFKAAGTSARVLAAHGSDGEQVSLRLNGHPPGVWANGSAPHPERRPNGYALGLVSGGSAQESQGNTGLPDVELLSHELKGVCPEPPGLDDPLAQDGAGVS
Description: Human Adenosine A2A Receptor
(§1) The human adenosine A2A receptor was recombinantly expressed in chinese hamster ovary (CHO) cells using the semlilki forest virus expression system. Cells were harvested, washed twice by centrifugation, homogenized and again washed by centrifugation. The final washed membrane pellet was suspended in a Tris (50 mM) buffer containing 120 mM NaCl, 5 mM KCl, 2 mM CaCl2 and 10 mM MgCl2 (pH 7.4) (buffer A) The [^3H]-SCH-58261 (Dionisotti et al., 1997, Br J Pharmacol 121, 353; 1 nM) binding assay was carried out in 96-well plates in the presence of 2.5 μg of membrane protein, 0.5 mg of Ysi-poly-l-lysine SPA beads and 0.1 U adenosine deaminase in a final volume of 200 μl of buffer A. Non-specific binding was defined using xanthine amine congener (XAC; 2 μM). Compounds were tested at 10 concentrations from 10 μM-0.3 nM. All assays were conducted in duplicate and repeated at least two times. Assay plates were incubated for 1 hour at room temperature before centrifugation and then bound ligand determined using a Packard Topcount scintillation counter. IC50 values, the concentration where 50% of the […] binding is displaced, were calculated using a non-linear curve fitting program and Ki values calculated using the Cheng-Prussoff equation.

[2] = target: T2, human adenosine A1 receptor (Homo sapiens, UniProt P30542); test: [3H]-DPCPX binding assay, human adenosine A1 receptor (SPA, CHO cell membranes); conditions: recombinant human A1 in CHO membranes; [3H]-DPCPX 0.6 nM; Ki by Cheng-Prussoff; read-out: hA1 (pKi) (converted)
T2 construct: expressed in transfected cells; host or cells: CHO cells, Semliki Forest virus expression system; membrane preparation
T2 sequence (P30542 1-326): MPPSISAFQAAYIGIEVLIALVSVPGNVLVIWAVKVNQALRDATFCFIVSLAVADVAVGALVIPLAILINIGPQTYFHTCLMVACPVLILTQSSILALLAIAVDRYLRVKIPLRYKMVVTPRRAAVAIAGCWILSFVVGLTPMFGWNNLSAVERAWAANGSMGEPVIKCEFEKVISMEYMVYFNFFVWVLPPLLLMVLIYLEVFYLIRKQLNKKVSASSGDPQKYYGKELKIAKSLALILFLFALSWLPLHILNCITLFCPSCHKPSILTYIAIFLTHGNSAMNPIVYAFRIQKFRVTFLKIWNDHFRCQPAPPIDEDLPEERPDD
Description: Human Adenosine A1 Receptor
as §1, with “A1” for “A2A”, “A).” for “A)”, “[^3H]-DPCPX (([propyl-^3H]8-cyclopentyl-1,3-dipropyxanthine); 0.6” for “[^3H]-SCH-58261 (Dionisotti et al., 1997, Br J Pharmacol 121, 353; 1”, “IC50,” for “IC50 values,”, “displaced, values” for “displaced,”, “ki” for “Ki”

Ki [1] | Ki [2] | melting point | SMILES
6.31 nM | 1260 nM | 137 to 139 °C | COc1ccc(N2CCOCC2)c2sc(C(=O)NCCc3ccsc3)nc12 [Example 54, 4-Methoxy-7-morpholin-4-yl-benzothiazole-2-carboxylic acid (2-thiophen-3-yl-ethyl)-amide]
1.26 nM | 200 nM | 127 to 129 °C | COc1ccc(N2CCOCC2)c2sc(C(=O)NC(C)Cc3cccs3)nc12 (stereo not drawn) [Example 81, 4-Methoxy-7-morpholin-4-yl-benzothiazole-2-carboxylic acid (1-methyl-2-thiophen-2-yl-ethyl)-amide]
